# “And” between values parts separate entries of the source, which are not always exact repeats. Identical values can stand only once. “Also recorded” adds a separate entry of the source.
# Tests used:
# [1] = biological target: T1, human M3 muscarinic acetylcholine receptor (Homo sapiens, UniProt P20309); format: cell-based
# T1 construct: CHO cells expressing the human M3 muscarinic acetylcholine receptor open reading frame; host or cells: CHO cells, stably transfected (CHO-M3)
# [2] = system: store-operated calcium entry (SOCE) channels; assay: Store-operated calcium entry (SOCE) in CHO-M3 cells (fura-2 imaging); format: cell-based, Chinese hamster; conditions: for acute effect of direct SOCE channel inhibitors on SOCE: added after activation of SOCE by 10 μM carbamylcholine, honokiol 30 μM in insert, unpublished observations; for initial rate of rise of [Ca2+]i in response to reintroduction of calcium: control cells
# [3] = biological target: T2, human M3 muscarinic receptor (Homo sapiens, UniProt P20309); format: binding
# T2 construct: CHO cells expressing the human M3 muscarinic acetylcholine receptor open reading frame; host or cells: CHO cells, stably transfected (CHO-M3)
# Description: (§1) In some experiments, the cells were exposed to 2 mM tBHP for 90 min before harvesting. Binding was determined by filtering the suspension through glass fiber filters (1 μm pore size) and measuring the amount of radioactivity bound to membranes trapped on the filters by liquid scintillation counting.
# (§2) Binding parameters were averaged from 3 independent experiments. […] 5′-Guanylyl-imidodiphosphate (Gpp(NH)p) was included in some experiments to assess receptor – G protein interactions.
# [4] = biological target: T3, human M2 muscarinic receptor (Homo sapiens, UniProt P08172); assay: [3H]N-methylscopolamine dissociation from M2 receptors expressed in CHO cells; format: binding
# T3 sequence (P08172 1-466): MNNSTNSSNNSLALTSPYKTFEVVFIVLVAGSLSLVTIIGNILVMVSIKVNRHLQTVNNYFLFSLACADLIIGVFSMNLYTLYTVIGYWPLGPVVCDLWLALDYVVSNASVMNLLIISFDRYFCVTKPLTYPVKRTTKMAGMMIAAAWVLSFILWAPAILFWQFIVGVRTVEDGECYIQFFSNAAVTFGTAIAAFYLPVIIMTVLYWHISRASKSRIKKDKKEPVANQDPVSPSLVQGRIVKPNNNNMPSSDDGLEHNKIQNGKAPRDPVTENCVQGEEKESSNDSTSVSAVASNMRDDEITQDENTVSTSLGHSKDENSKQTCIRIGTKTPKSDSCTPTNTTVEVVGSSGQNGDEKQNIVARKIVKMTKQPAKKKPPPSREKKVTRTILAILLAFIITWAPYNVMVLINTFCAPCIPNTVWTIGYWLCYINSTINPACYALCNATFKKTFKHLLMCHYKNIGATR
# Description: as §1, §2
# Muscarinic receptors can also be regulated by ligands that bind to an allosteric site. […] Accordingly, we measured ligand dissociation from muscarinic receptors after exposure to 2 mM tBHP for 90 min (Figure 9).
# CHO-M3 cells [5] = assay: Endoplasmic reticulum luminal calcium (Mag-Fura 2, saponin-permeabilized cells); format: cell-based, Chinese hamster
# Description: The concentration of Ca^2+ in the lumen of the ER ([Ca^2+]L) was measured using the low-affinity calcium indicator, Mag-Fura 2 (Molecular Probes). […] The media was removed and the cells rinsed with BSS and then incubated with Mag-Fura 2 (50 μM) for 60 minutes at room temperature. Mag-Fura 2 was removed and the cells incubated for an additional 30 minutes. Prior to imaging, the BSS was removed and replaced with Ca^2+- and Mg^2+-free BSS. During imaging, the cells were permeabilized by exposure to 0.005% saponin for 70 seconds to release cytosolic calcium. This caused a rapid decrease in total fluorescence intensity following excitation at both 340 and 380 nm, but elimination of the pervasive cytosolic signal allowed detection of ER lumen calcium levels 30 seconds after saponin addition. Following stabilization of the signal (≈100 sec), R340/380 was averaged for 10 seconds in approximately 20 cells on each plate.
# CHO-M3 cells [6] = assay: Resting cytosolic calcium concentration in CHO-M3 cells (fura-2 imaging); format: cell-based, Chinese hamster
# CHO-M3 cells [7] = assay: Thapsigargin-induced release of calcium from the ER in CHO-M3 cells (fura-2 imaging)
# CHO-M3 cells [8] = assay: Reactive oxygen species, DCFDA fluorescence; format: cell-based, Chinese hamster; conditions: 90 min exposure
# Description: The concentration of reactive oxygen species (ROS) was determined by the […] of 2′,7′-dichlorodihydrofluorescein (DCFDA; Sigma). CHO-M3 cells were plated on a 96 well plate with opaque walls at a density of 30,000 cells/well, and incubated overnight in phenol red-free media. Following a 90 min exposure to tBHP, the media was removed and the cells were washed with BSS. DCFDA (100 μl of a 40 μM solution) was added, and the plate was incubated for 1 h before measuring fluorescence at 485 nm excitation/520 nm emission using a FLUOstar plate reader.
# [9] = 90 min exposure, extracellular calcium present
# T1 sequence (P20309 whole entry): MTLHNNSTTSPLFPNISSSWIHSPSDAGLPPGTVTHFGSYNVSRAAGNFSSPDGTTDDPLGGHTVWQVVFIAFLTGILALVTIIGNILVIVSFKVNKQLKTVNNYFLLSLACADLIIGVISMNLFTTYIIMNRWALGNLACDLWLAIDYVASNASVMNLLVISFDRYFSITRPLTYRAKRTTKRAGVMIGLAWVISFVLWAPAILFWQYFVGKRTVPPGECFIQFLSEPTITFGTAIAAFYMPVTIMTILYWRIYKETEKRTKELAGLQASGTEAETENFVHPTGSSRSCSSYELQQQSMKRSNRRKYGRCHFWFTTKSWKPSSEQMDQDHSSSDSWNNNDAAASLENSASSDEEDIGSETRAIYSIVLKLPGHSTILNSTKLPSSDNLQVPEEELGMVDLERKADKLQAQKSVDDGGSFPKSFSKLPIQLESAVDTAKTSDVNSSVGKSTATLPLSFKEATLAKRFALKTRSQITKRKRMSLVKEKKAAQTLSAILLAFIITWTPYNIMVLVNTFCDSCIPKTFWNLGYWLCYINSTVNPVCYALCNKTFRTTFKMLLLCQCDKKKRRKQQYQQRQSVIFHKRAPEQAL
# T2 sequence (P20309 whole entry): as above
structure (smiles),measurement,setting,value
NCCOB(c1ccccc1)c1ccccc1 [2-aminoethoxydiphenylborane],effect on all calcium responses to carbamylcholine,[1],completely blocked
same,acute effect of direct SOCE channel inhibitors on SOCE,[2],immediate reductions in SOCE; also recorded: immediate reduction of SOCE
"Nc1nc2c(ncn2[C@@H]2O[C@H](COP(=O)(O)OP(=O)(O)NP(=O)(O)O)[C@@H](O)[C@H]2O)c(=O)[nH]1 [Gpp(NH)p, 5′-Guanylyl-imidodiphosphate]",effect on carbamylcholine inhibition curves of [3H]MS binding,[3],shifted the inhibition curves to the right
"Cl.O=S(=O)(c1cccc2c(Cl)cccc12)N1CCCNCC1 [ML 9, 1-(5-chloronaphthalenesulfonyl)homo piperazine hydrochloride]",acute effect of direct SOCE channel inhibitors on SOCE,[2],immediate reduction of SOCE
"C[N+]1(C)[C@@H]2CC(OC(=O)[C@H](CO)c3ccccc3)C[C@H]1[C@@H]1O[C@@H]12 (stereo partly shown) [[^3H]MS, [^3H]N-methylscopolamine]","k−1, rate constant for [3H]MS dissociation",[4],0.027 ± 0.004 min⁻¹ and 0.021 ± 0.006 min⁻¹
same,"k−1, rate constant for [3H]MS dissociation, with gallamine",[4],0.004 ± 0.001 min⁻¹ and 0.005 ± 0.002 min⁻¹
C[N+](C)(C)CCOC(N)=O.[Cl-] [carbamylcholine],initial rate of rise of [Ca2+]i in response to reintroduction of calcium,"[2]; after carbamylcholine in calcium-free medium, 2 mM calcium reintroduced",24 ± 8 nM/s
C=CCc1ccc(O)c(-c2ccc(O)c(CC=C)c2)c1 [honokiol],acute effect of direct SOCE channel inhibitors on SOCE,[2],immediate reductions in SOCE; also recorded: immediate reduction of SOCE
"CC(C)(C)OO [tBHP, tert-butyl hydroperoxide]",decrease of [Ca2+]L,"CHO-M3 cells [5]; 90 min exposure, 0.5-10 mM (abstract)",55%
same,"[Ca2+]L, % of control levels",CHO-M3 cells [5]; pretreatment 1-20 mM for 90 min,≈ 55 % of control
same,resting [Ca2+]i after exposure (control 26 nM),"CHO-M3 cells [6]; 20 mM tBHP, 90 min, 2 mM extracellular calcium",127 nM
same,resting [Ca2+]i after exposure (control 26 nM),"CHO-M3 cells [6]; 0.5-10 mM tBHP, 90 min (abstract)",up to 127 nM
same,resting calcium concentration after exposure,"CHO-M3 cells [6]; 90 min exposure, Figure 3a",> 100 nM
same,effect on the response to M3 receptor activation,"[1]; 90 min exposure, all concentrations at or above 1 mM, no extracellular calcium",depressed
same,effect on the initial calcium response to carbamylcholine,[1]; [9],not significantly affected
same,acute effect on calcium entry after activation of SOCE,[2]; 20 mM added at 120 sec after 10 μM carbamylcholine,did not block calcium entry
same,depression of SOCE after thapsigargin,"[2]; 90 min exposure, 0.5-5 mM, dose-dependent, calcium reintroduced (2 mM)",30-70%
same,effect on ability of thapsigargin-induced calcium release to evoke SOCE,"[2]; 90 min exposure, 0.5-20 mM, extracellular calcium present",severely compromised
same,"effect on ability to maintain the higher level of [Ca2+]i (plateau, SOCE)",[2]; [9],compromised in a concentration-dependent manner
same,inhibition of the initial thapsigargin-stimulated release of calcium from the ER,"CHO-M3 cells [7]; 90 min exposure, all concentrations 0.5 to 5 mM, calcium-free medium",50%
same,effect on ability of carbamylcholine to inhibit [3H]MS binding,[3],not affected
same,effect on atropine-induced dissociation of M3 receptor-[3H]MS complex and on gallamine slowing of dissociation,[3],had no effect
same,effect on [3H]MS binding affinity,[3]; 2 mM for 90 min,not affected
same,threshold concentration for ROS production,CHO-M3 cells [8],5 mM
same,increase in ROS,CHO-M3 cells [8]; at 10 mM tBHP,up to 400%
same,effect on allosteric receptor actions,[4]; 2 mM for 90 min,not affected
C/C=C(/C)C(=O)O[C@H]1C(C)=C2[C@H]([C@@H]1OC(=O)CCCCCCC)[C@@](C)(OC(C)=O)C[C@H](OC(=O)CCC)[C@@]1(O)[C@H]2OC(=O)[C@@]1(C)O [thapsigargin],initial rate of rise of [Ca2+]i in response to reintroduction of calcium,[2]; after 1 μM thapsigargin in calcium-free medium,40.0 ± 5.1 nM/s
same,initial rate of rise of [Ca2+]i in response to thapsigargin,"CHO-M3 cells [7]; control cells, 1 μM thapsigargin, extracellular calcium present",4.3 ± 0.6 nM/s

# Reference: publication PMC3716919, “Oxidative stress disruption of receptor-mediated calcium signaling mechanisms” (Journal of Biomedical Science, 2013)
